Measured values from patent publication US20240101576A1, “HETEROCYCLIC INHIBITORS OF EGFR AND/OR HER2, FOR USE IN THE TREATMENT OF CANCER” (Scorpion Therapeutics, Inc., priority 2020, published 2024).

Assays:
Type in all cases: cell-based
[1] = biological target: T1, EGFR exon 20 NPG Ins D770_N771 (Ba/F3 cells) (Homo sapiens, UniProt P00533, INS770NPG); test: Inhibitor activity on EGFR-dependent cell growth (CellTiter-Glo, 72 h), Ba/F3 EGFR exon 20 NPG Ins; details: read-out: BaF3 NPG IC50
T1 construct: expressed in transfected cells; host or cells: Ba/F3 (murine pro-B cells), retroviral transduction, puromycin selection, IL3-independent pool
Outline: (§1)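 IC50s derive from a sigmoidal dose–response fit of CellTiter-Glo signal. The signal was normalised between […]-treated cells and cell-free medium. Ba/F3 mutant-EGFR cells, seeded at 400–800/well depending on the line, had 72 h of exposure to a 10-point, 3-fold compound series.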

[2] = biological target: T2, EGFR exon 20 ASV Ins V769_D770 (Ba/F3 cells) (Homo sapiens, UniProt P00533, INS769ASV); test: Inhibitor activity on EGFR phosphorylation (pEGFR AlphaLISA, 2 h), Ba/F3 EGFR exon 20 ASV Ins
T2 construct: expressed in transfected cells; host or cells: Ba/F3 (murine pro-B cells), retroviral transduction, puromycin selection, IL3-independent pool
Excerpt: Example B. Inhibitor Activity on EGFR phosphorylation (pEGFR)
EGFR mutant Ba/F3 cells were generated by transduction with retrovirus containing vectors expressing EGFR L858R, EGFR exon 19del, EGFR L858R/C797S, EGFR exon 20 NPG Ins D770_N771, EGFR exon 20 ASV Ins V769_D770, or EGFR exon 20 SVD Ins D770_N771 genes along with a puromycin selection marker. Transduced cells are selected with puromycin for 7 days and are then be transferred into culture media without Interleukin 3 (IL3). Surviving cells are confirmed to express EGFR by Western blot and maintained as a pool. CUTO14 cells were obtained from Dr. Robert C. Doebele at the University of Colorado. The IC50 date are included in Table 6 and Table 7.
1.1 Cells are harvested from flask into cell culture medium and the cell number counted.
1.2 Cells are diluted with culture medium to the desired density and 40 μL of cell suspension is added into each well of 384-well cell culture plate and the seeding density is 50K cells/well (Ba/F3) or 12.5K cells/well (CUTO14).
2 Compound Preparation and Treatment
2.1 Test compounds are dissolved to 10 mM in a DMSO stock solution. 45 μL of stock solution is transferred to a 384 polypropylene plate (pp-plate). Perform 3-fold, 10-point dilution via transferring 15 μL compound into 30 μL DMSO using a TECAN (EVO200) liquid handler.
2.2 Spin plates at room temperature at 1,000 RPM for 1 minute.
2.3 Transfer 5 nL of diluted compound from compound source plate into the cell plate.
2.4 After compound treatment for 2 hours, perform pEGFR detection by AlphaLISA for compound treatment plates as described in “Detection” section.
3 Detection by pEGFR AlphaLISA (Perkin-Elmer)
3.1 Plates are removed from incubators and equilibrated at room temperature for 10 minutes, and media was removed
3.2 10 μL of lysis buffer is added and plates shaken at 600 rpm for 1 hr.
3.3 Prepare acceptor mix just before use and dispense 5 μL of acceptor mix to all the wells. Shake 350 rpm for Ihr in the dark
3.4 Prepare donor mix under low light conditions prior to use. Dispense 5 μL of donor mix to all the wells. Mix well on the shaker, seal and wrap in aluminum foil and incubate 1.5 hrs at room temperature in the dark
3.5 Transfer 18.5 μL mixture to OptiPlate 384, and read using an Envision. The IC50 date were included in Table 6 and Table 7.

EGFR WT (Ba/F3 cells) = biological target: T3, EGFR WT (Ba/F3 cells) (Homo sapiens, UniProt P00533); test: Inhibitor activity on EGFR-dependent cell growth (CellTiter-Glo, 72 h), Ba/F3 EGFR WT; details: read-out: BaF3 WT IC50
T3 construct: expressed in transfected cells; host or cells: Ba/F3 (murine pro-B cells), retroviral transduction, puromycin selection, maintained with EGF
Outline: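 This growth assay used Ba/F3 cells that depend on wild-type EGFR and are kept in EGF without IL3. Compounds were made up as 10 mM DMSO stocks and diluted 3-fold over 10 points. 120 nL went onto 600 cells/well. After 72 hours, 40 μL CellTiter-Glo was added and luminescence read on EnVision after 30 min.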

[3] = biological target: T4, EGFR exon 20 FQEA Ins A763_V764 (Ba/F3 cells) (Homo sapiens, UniProt P00533, INS763FQEA); test: Inhibitor activity on EGFR-dependent cell growth (CellTiter-Glo, 72 h), Ba/F3 EGFR exon 20 FQEA Ins; details: read-out: BaF3 FQEA IC50
T4 construct: expressed in transfected cells; host or cells: Ba/F3 (murine pro-B cells), retroviral transduction, puromycin selection, IL3-independent pool
Outline: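 Ba/F3 cells engineered with each EGFR variant were plated (400, 600 or 800 per well for L858R, L858R/C797S, and exon 19del/FQEA). They were exposed for 72 hours to compound serially diluted from a 10 mM DMSO stock. Remaining viable cells were quantified by CellTiter-Glo, and IC50 was curve-fitted.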

[4] = biological target: T5, EGFR exon 20 SVD Ins D770_N771 (Ba/F3 cells) (Homo sapiens, UniProt P00533, INS770SVD); test: Inhibitor activity on EGFR-dependent cell growth (CellTiter-Glo, 72 h), Ba/F3 EGFR exon 20 SVD Ins; details: read-out: BaF3 SVD IC50
T5 construct: expressed in transfected cells; host or cells: Ba/F3 (murine pro-B cells), retroviral transduction, puromycin selection, IL3-independent pool
Outline: as §1

[5] = biological target: T2, EGFR exon 20 ASV Ins V769_D770 (Ba/F3 cells); test: Inhibitor activity on EGFR-dependent cell growth (CellTiter-Glo, 72 h), Ba/F3 EGFR exon 20 ASV Ins; details: read-out: BaF3 ASV IC50
Outline: as §1

[6] = EGFR phosphorylation, AlphaLISA, 2 hours, read-out: ASV IC50 (pEGFR)

T5 sequence (P00533 with tags, fused parts or gaps INS770SVD): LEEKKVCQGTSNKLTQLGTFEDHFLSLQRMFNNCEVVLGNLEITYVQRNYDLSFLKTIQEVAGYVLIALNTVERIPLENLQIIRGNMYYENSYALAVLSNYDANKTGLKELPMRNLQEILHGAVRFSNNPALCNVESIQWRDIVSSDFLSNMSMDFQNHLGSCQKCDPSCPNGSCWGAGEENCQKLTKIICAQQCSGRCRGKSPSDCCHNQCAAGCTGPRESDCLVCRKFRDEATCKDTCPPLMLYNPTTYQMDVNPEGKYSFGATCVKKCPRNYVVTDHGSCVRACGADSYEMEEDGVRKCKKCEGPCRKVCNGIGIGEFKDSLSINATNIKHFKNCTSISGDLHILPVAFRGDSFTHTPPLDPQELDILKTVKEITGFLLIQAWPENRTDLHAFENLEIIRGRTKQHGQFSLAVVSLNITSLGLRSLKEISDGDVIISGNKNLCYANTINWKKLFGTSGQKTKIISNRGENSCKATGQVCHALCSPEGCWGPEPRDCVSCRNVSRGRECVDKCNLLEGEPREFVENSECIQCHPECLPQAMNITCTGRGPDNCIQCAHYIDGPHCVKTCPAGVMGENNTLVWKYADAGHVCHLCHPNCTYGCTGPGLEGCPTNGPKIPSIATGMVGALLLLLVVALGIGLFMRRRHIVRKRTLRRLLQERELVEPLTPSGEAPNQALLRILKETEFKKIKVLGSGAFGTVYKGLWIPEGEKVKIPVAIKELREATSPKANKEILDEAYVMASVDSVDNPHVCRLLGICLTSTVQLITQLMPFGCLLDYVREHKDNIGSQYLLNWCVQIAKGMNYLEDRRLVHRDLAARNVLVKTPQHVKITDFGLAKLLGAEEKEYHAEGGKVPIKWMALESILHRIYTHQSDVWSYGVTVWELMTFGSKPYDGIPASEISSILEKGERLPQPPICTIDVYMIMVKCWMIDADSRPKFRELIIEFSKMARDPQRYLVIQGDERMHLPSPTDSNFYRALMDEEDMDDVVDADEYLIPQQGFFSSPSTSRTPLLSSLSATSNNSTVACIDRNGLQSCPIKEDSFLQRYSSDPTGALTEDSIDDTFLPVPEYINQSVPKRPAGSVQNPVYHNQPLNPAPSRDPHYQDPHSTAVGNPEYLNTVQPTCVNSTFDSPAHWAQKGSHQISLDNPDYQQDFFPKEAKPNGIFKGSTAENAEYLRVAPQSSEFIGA
T1 sequence (P00533 with tags, fused parts or gaps INS770NPG): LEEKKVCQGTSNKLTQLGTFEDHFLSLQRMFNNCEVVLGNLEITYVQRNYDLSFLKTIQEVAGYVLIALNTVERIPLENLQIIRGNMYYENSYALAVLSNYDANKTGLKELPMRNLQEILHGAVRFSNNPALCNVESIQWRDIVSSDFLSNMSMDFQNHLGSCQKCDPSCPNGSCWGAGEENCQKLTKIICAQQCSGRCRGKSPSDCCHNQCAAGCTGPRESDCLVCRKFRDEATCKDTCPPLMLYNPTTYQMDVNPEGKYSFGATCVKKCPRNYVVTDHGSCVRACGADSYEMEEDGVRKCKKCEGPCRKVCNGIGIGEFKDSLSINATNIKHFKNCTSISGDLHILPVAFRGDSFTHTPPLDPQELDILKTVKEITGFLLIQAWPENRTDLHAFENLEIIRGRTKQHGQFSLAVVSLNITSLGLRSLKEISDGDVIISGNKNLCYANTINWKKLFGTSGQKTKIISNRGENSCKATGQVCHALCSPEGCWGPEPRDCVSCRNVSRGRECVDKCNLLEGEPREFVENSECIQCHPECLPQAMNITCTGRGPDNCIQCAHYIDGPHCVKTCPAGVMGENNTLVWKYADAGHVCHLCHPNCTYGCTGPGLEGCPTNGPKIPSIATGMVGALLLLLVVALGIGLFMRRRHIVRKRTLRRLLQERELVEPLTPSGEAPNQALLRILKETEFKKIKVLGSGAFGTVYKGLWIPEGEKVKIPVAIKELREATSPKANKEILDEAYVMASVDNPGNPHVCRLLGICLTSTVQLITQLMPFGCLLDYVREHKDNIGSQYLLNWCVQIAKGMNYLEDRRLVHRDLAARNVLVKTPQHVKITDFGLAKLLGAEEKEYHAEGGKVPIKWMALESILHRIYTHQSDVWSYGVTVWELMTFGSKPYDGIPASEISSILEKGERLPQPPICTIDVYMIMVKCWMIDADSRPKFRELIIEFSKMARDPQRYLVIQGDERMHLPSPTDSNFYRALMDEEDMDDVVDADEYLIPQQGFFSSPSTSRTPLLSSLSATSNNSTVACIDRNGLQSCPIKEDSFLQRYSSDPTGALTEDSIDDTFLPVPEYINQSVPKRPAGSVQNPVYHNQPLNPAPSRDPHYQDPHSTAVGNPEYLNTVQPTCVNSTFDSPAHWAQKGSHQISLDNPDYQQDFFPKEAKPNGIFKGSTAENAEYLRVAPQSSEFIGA
T2 sequence (P00533 with tags, fused parts or gaps INS769ASV): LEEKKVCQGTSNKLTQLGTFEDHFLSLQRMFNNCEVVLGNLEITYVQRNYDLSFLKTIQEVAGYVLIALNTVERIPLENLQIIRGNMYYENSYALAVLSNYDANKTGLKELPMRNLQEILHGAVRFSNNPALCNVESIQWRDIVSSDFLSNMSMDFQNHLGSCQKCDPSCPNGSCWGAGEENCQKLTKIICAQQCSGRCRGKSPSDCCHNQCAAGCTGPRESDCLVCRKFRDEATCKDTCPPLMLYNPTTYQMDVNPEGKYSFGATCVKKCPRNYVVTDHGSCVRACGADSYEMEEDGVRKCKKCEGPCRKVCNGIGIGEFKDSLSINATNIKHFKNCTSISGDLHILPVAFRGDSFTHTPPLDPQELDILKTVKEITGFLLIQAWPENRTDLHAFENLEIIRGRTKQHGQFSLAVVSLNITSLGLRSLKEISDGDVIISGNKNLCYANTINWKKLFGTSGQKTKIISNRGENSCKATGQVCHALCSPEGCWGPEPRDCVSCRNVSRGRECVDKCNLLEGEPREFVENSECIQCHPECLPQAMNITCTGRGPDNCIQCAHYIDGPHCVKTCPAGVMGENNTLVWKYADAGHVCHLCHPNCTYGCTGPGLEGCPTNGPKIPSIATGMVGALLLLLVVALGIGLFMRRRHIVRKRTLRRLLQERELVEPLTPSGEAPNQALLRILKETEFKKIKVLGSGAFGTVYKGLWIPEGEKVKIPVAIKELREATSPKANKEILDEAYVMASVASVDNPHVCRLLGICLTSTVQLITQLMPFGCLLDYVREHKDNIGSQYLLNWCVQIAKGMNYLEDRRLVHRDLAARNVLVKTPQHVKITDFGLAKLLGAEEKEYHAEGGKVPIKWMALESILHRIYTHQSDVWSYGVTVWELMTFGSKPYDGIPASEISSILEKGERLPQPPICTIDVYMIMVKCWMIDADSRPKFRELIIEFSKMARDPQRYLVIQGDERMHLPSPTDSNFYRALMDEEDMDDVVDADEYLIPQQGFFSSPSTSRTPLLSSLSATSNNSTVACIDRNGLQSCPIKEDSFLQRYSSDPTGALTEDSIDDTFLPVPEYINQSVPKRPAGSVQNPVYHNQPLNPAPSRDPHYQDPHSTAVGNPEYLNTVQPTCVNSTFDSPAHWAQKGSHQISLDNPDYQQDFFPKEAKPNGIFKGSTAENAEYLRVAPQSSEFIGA
T3 sequence (P00533 25-1210): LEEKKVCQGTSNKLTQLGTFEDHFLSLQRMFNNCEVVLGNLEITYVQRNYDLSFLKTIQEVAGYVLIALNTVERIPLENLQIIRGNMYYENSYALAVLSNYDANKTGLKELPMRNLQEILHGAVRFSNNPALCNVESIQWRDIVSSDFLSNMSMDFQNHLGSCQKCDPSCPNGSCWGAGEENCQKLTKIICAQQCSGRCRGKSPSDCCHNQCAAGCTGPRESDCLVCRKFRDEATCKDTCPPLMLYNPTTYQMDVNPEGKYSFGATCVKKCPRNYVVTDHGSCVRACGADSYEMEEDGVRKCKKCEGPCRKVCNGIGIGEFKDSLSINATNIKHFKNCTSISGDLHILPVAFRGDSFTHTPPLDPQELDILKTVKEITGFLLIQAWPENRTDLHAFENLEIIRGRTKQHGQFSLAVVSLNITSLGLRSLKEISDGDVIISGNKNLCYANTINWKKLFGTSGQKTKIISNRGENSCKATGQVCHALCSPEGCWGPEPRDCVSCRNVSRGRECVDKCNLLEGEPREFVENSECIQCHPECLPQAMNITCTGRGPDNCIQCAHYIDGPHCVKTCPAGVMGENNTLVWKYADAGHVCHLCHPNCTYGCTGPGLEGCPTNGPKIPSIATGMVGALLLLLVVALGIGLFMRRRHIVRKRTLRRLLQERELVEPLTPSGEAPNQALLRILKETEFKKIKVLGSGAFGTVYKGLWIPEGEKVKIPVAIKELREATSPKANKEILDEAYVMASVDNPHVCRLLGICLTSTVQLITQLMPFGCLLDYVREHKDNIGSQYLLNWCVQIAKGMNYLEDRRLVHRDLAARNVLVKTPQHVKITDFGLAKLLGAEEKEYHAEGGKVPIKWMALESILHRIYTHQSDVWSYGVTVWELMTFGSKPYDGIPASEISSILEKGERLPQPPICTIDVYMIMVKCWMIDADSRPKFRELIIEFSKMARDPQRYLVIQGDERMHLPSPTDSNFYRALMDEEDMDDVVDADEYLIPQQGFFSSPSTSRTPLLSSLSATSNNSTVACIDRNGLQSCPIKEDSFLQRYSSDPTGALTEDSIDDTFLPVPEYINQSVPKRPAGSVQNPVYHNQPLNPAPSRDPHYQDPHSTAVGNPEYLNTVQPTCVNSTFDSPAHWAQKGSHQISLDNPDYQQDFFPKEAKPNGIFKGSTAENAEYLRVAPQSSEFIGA

SMILES	IC50 [1] [nM]	IC50 [2, 6] [nM]	IC50 (EGFR WT (Ba/F3 cells)) [nM]	IC50 [3] [nM]	IC50 [4] [nM]	IC50 [5] [nM]	IC50 [2] [nM]
COc1c(F)cccc1Nc1c(-c2snc3cccnc23)[nH]c2c1C(=O)NCC2 [Compound 156, 3-((3-fluoro-2-methoxyphenyl)amino)-2-(isothiazolo[4,3-b]pyridin-3-yl)-1,5,6,7-tetrahydro-4H-pyrrolo[3,2-c]pyridin-4-one]	> 1000	> 1000	> 1000	> 1000	> 1000	> 1000	–
COc1c(F)cccc1Nc1c(-c2nc(N)ncc2F)[nH]c2c1C(=O)NCC2 [Compound 688, 2-(2-amino-5-fluoropyrimidin-4-yl)-3-[(3-fluoro-2-methoxyphenyl)amino]-1H,5H,6H,7H-pyrrolo[3,2-c]pyridin-4-one]	> 1000	> 1000	> 1000	> 1000	> 1000	> 1000	–
COc1c(F)cccc1Nc1c(-c2ccnc3ccc(NC(C)(C)C)nc23)[nH]c2c1C(=O)NCC2 [Compound 694, 2-[6-(tert-butylamino)-1,5-naphthyridin-4-yl]-3-[(3-fluoro-2-methoxyphenyl)amino]-1H,5H,6H,7H-pyrrolo[3,2-c]pyridin-4-one]	< 100	< 100	< 100	< 100	< 100	< 100	–
COc1c(F)cccc1Nc1c(-c2ccnc3ccc(OC4CC4)nc23)[nH]c2c1C(=O)NCC2 [Compound 696, 2-(6-cyclopropoxy-1,5-naphthyridin-4-yl)-3-[(3-fluoro-2-methoxyphenyl)amino]-1H,5H,6H,7H-pyrrolo[3,2-c]pyridin-4-one; trifluoroacetic acid]	< 100	< 100	< 100	< 100	< 100	< 100	–
COc1c(F)cccc1Nc1c(-c2ccnc3ccc(N(C)C)nc23)[nH]c2c1C(=O)NCC2 [Compound 697, 2-[6-(dimethylamino)-1,5-naphthyridin-4-yl]-3-[(3-fluoro-2-methoxyphenyl)amino]-1H,5H,6H,7H-pyrrolo[3,2-c]pyridin-4-one]	< 100	< 100	< 100	< 100	< 100	< 100	–
COc1c(Nc2c(-c3ccnc(N)n3)[nH]c3c2C(=O)NCC3)cccc1C(F)(F)F [Compound 698, 2-(2-aminopyrimidin-4-yl)-3-[[2-methoxy-3-(trifluoromethyl)phenyl]amino]-1H,5H,6H,7H-pyrrolo[3,2-c]pyridin-4-one]	100 to 1000	100 to 1000	> 1000	100 to 1000	–	–	–
COc1c(Cl)cccc1Nc1c(-c2ccnc(NCC(F)(F)F)n2)[nH]c2c1C(=O)NCC2 [Compound 701, 3-[(3-chloro-2-methoxyphenyl)amino]-2-[2-[(2,2,2-trifluoroethyl)amino]pyrimidin-4-yl]-1H,5H,6H,7H-pyrrolo[3,2-c]pyridin-4-one]	> 1000	100 to 1000	> 1000	> 1000	> 1000	> 1000	–
Nc1nccc(-c2[nH]c3c(c2Nc2cccc(Cl)c2F)C(=O)NCC3)n1 [Compound 706, 2-(2-aminopyrimidin-4-yl)-3-[(3-chloro-2-fluorophenyl)amino]-1H,5H,6H,7H-pyrrolo[3,2-c]pyridin-4-one]	< 100	–	100 to 1000	100 to 1000	–	–	< 100
COc1c(Cl)cccc1Nc1c(-c2ccnc(NCC(C)(C)O)n2)[nH]c2c1C(=O)NCC2 [compound 288]	–	> 1000	> 1000	> 1000	> 1000	> 1000	–
COc1c(Cl)cccc1Nc1c(-c2ccnc3[nH]c(=O)oc23)[nH]c2c1C(=O)NCC2 [compound 293]	–	> 1000	> 1000	> 1000	> 1000	> 1000	–
CCc1c(Cl)cccc1Nc1c(-c2ccnc(N)n2)[nH]c2c1C(=O)NCC2 [compound 297]	100 to 1000	< 100	> 1000	100 to 1000	–	–	–
COc1cccc(Nc2c(-c3ccnc(N)n3)[nH]c3c2C(=O)NCC3)c1Cl [compound 301]	–	> 1000	> 1000	> 1000	> 1000	> 1000	–
COc1cc(Cl)cc(Nc2c(-c3ccnc(N)n3)[nH]c3c2C(=O)NCC3)c1 [compound 302]	–	> 1000	> 1000	> 1000	> 1000	> 1000	–
COc1c(Nc2c(-c3ccnc(N)n3)[nH]c3c2C(=O)NCC3)ccc(F)c1F [compound 303]	–	100 to 1000	> 1000	> 1000	100 to 1000	> 1000	–
COc1c(F)cc(F)cc1Nc1c(-c2ccnc(N)n2)[nH]c2c1C(=O)NCC2 [compound 304]	–	< 100	> 1000	100 to 1000	100 to 1000	100 to 1000	–
Nc1nccc(-c2[nH]c3c(c2Nc2cccc4c2OCO4)C(=O)NCC3)n1 [compound 306]	–	100 to 1000	> 1000	100 to 1000	> 1000	> 1000	–
Nc1nccc(-c2[nH]c3c(c2Nc2cccc4ccoc24)C(=O)NCC3)n1 [compound 307]	–	100 to 1000	> 1000	> 1000	> 1000	> 1000	–
COc1c(Cl)cccc1Nc1c(-c2ccnc(NCC3CC(F)(F)C3)c2)[nH]c2c1C(=O)NCC2 [compound 711]	–	100 to 1000	> 1000	> 1000	> 1000	> 1000	–
Nc1nccc(-c2[nH]c3c(c2Nc2cccc4scnc24)C(=O)NCC3)n1 [compound 718, 2-(2-aminopyrimidin-4-yl)-3-(1,3-benzothiazol-4-ylamino)-1H,5H,6H,7H-pyrrolo[3,2-c]pyridin-4-one; trifluoroacetic acid]	–	100 to 1000	> 1000	> 1000	> 1000	> 1000	–
Cc1c(Cl)cccc1Nc1c(-c2ccnc(N)n2)[nH]c2c1C(=O)NCC2 [compound 725, 2-(2-aminopyrimidin-4-yl)-3-[(3-chloro-2-methylphenyl)amino]-1H,5H,6H,7H-pyrrolo[3,2-c]pyridin-4-one; trifluoroacetic acid]	< 100	< 100	100 to 1000	100 to 1000	–	–	–
COc1c(Nc2c(-c3ccnc(N)n3)[nH]c3c2C(=O)NCC3)cccc1C(C)=O [compound 728, 3-[(3-acetyl-2-methoxyphenyl)amino]-2-(2-aminopyrimidin-4-yl)-1H,5H,6H,7H-pyrrolo[3,2-c]pyridin-4-one]	–	> 1000	> 1000	> 1000	> 1000	> 1000	–
